Data from US20160361365A1, “TREATMENT OF CNS DISEASE WITH ENCAPSULATED INDUCIBLE CHOROID PLEXUS CELLS” (Living Cell Technologies New Zealand Limited, priority 2015, published 2016).
Counter-ions that a name gives are not always drawn.

Key:
Assay type in all cases: cell-based, porcine
[1] = test system: CP clusters containing CP cells; experiment: RNA-Seq of CP clusters for genes encoding CSF components after exposure to inducing agent; details: 12 mM LiCl, 72 hours, vs controls; FIG. 8
Description: In a further experiment to identify genes for which the expression levels were altered in CP cells following contact with an inducing agent as provided herein, CP clusters (5×10^3 clusters/mL) containing CP cells, obtained from 12-13 day-old piglets and cultured in vitro for 20-22 days, were incubated for 72 hours in serum-free, phenol-free RPMI medium containing 10 mM nicotinamide in the absence (controls) or presence (inducing agent-treated) of 12 mM LiCl. Cell pellets were harvested and 0.25 ml of TRI™ Reagent (Catalog # T9424, Sigma-Aldrich Corporation, St. Louis, Mo.) was added to lyse the cells. The lysate was pipetted up and down approximately 10 times and stored at −80° C. until RNA-Seq analysis. […] Corresponding human genes encoding human CSF components were identified by established orthology analysis (Groenen et al., 2012 Nature 491(7424):393-8).

encapsulated CP = experiment: VEGF secretion by encapsulated CP cultured with or without inducers; details: 1000 CP-containing capsules, 24 hours at 37° C.; FIG. 3B
Description: To determine that certain inducers can increase the secretion of CSF components by CPs that have been encapsulated, 1000 CP-containing capsules were cultured in 24-well multi-well plate with or without various inducers including LiCl at 37° C. for 24 hours. Aliquots of supernatant fluids were collected and assayed for VEGF as described in EXAMPLE 1. Aliquots of the cell cultures were also collected for DNA quantification to determine the relative number of cells in each well as described in EXAMPLE 1.

[2] = test system: Choroid plexus (CP) cell clusters; experiment: Total antioxidant capacity (TAC) of culture supernatants of CP cell clusters exposed to candidate CP inducing agents (OxiSelect TAC assay); details: non-encapsulated CP clusters, 72 hours; FIG. 2
Description: Choroid plexus (CP) cell clusters comprising CP cells (5×10^3 clusters/mL) were prepared as described above in Example 1 but without encapsulation and cultured at 37° C. in a 5% CO2 incubator for 24 or 72 hours in vitro in 24-well ultra-low (cell) attachment plates, and culture supernatants were tested for total antioxidant capacity (TAC) using the OxiSelect™ TAC assay (Cat. No. STA-360, Cell Biolabs, Inc., San Diego, Calif.) according to the manufacturer's instructions. To avoid interference in the TAC assay from medium components, cultures were incubated in serum-free, phenol-free RPMI media supplemented with 10 mM nicotinamide. A panel of candidate CP inducing agents was also tested for effects on TAC elaboration by CP cells. Control wells that received the culture medium alone or with each candidate CP inducing agent, but no CP cell clusters, were also incubated and tested for TAC.

SMILES | expression levels of porcine genes encoding known CSF components [1] | VEGF secretion by encapsulated CP versus culture without inducers (encapsulated CP) | release of total antioxidant capacity (TAC) by CP cells [2]
[Cl-].[Li+] [LiCl, lithium chloride] | expression levels increased (FIG. 8A-E) or decreased (FIG. 8F-K) | induced VEGF secretion by encapsulated CP above the level secreted by encapsulated CPs cultured without inducers | promoted the release by CP cells of elevated TAC levels
COC1=C(OC)C(=O)C(CCCCCCCCCC[P+](c2ccccc2)(c2ccccc2)c2ccccc2)=C(C)C1=O [MitoQ, 10-(6′-ubiquinoyl) decyltriphenylphosphonium salt] | – | induced VEGF secretion by encapsulated CPs | –
O=C([O-])[O-].[Li+].[Li+] [lithium carbonate] | – | induced VEGF secretion by encapsulated CP above the level secreted by encapsulated CPs cultured without inducers | –
NCCS(=O)(=O)O [taurine, 2-aminoethanesulfonic acid] | – | induced VEGF secretion by encapsulated CPs | –
